From patent US20240034735A1, “NOVEL COMPOUNDS” (AC Immune SA, priority 2022, published 2024) come the findings set out here.

By IC50 is commonly meant the midpoint of a concentration-inhibition curve.

Read-outs that look alike come from different tables or passages of the source. A value given as a limit tells only on which side of the number the result lay.

For the assay, the system named is NLRP3 inflammasome pathway. Nature of the assay: NLRP3 inflammasome pathway activation assay (IL-1β release, HTRF). To be noted: for IC50: IL-1β release, PMA-differentiated, LPS-primed cells; for inhibition of IL-1 beta release compared to the equivalent compounds in which Z1=C and Z2=N: human monocyte-like cells, MSU or Nigericin as activators, 8 vs 13, 11 vs 12. Format: cell-based, Human. How it is done: The following assays were used to determine the inhibitory activity of test compounds on the NLRP3 inflammasome pathway using common stimuli Nigericin (Invivogen) or monosodium urate crystals (MSU) (Invivogen).
Human monocyte-like cells were seeded at 25000 per well in a 384-well plate and were differentiated overnight into macrophages with 10 ng/ml PMA (Phorbol Myristate Acetate). The following day, medium containing 10 ng/ml LPS (Lipopolysaccharide) was added.
For IL-1β quantification, supernatants were analyzed using HTRF kit according to the manufacturer's instructions (Cisbio 62HIL1BPEH), Briefly, in a 384-well ProxiPlate™ microplate, 8 μl of sample was mixed, with 5 μl of Anti-IL1β Cryptate antibody (40×) and Anti-IL1β XL antibody (40×). Then, incubated overnight at RT. Reading was done using an EnVision Reader (PerkinElmer).
For orientation: TR-FRET usually uses a lanthanide donor and a delayed reading to cut background.

Where [1] appears, read: Homo sapiens, stimulation with MSU 200 μg/ml for 3 h, read-out: IC50 Human monocyte-like cells MSU.
[2] abbreviates: Homo sapiens, stimulation with Nigericin 3.75 μM for 3 h, read-out: IC50 Human monocyte-like cells Nigericin.
Setting [3] is: stimulation with MSU 200 μg/ml for 3 h, read-out: IC50 Human monocyte-like cells MSU.
Where [4] appears, read: stimulation with Nigericin 3.75 μM for 3 h, read-out: IC50 Human monocyte-like cells Nigericin.

`CN1CCC[C@@H](Nc2nnc(-c3ccc(C(F)(F)F)cc3O)n3cccc23)C1` [Example 1, (R)-2-(1-((1-methylpiperidin-3-yl)amino)pyrrolo[1,2-d][1,2,4]triazin-4-yl)-5-(trifluoromethyl)phenol]: the half-maximal inhibitory concentration (IC50) was under 5 nM under setting [1] and under 5 nM under setting [2]. In the case of `CN1CCC[C@@H](Nc2nnc(-c3ccc(C(F)(F)F)cc3O)n3nccc23)C1` [Example 2, (R)-2-(4-((1-methylpiperidin-3-yl)amino)pyrazolo[1,5-d][1,2,4]triazin-7-yl)-5-(trifluoromethyl)phenol], the half-maximal inhibitory concentration (IC50) under setting [1] lay within 5 to 20 nM.

`CN1CCC[C@@H](Nc2nnc(-c3ccc(OC(F)F)cc3)n3cccc23)C1` [Example 3, (R)-4-(4-(difluoromethoxy)phenyl)-N-(1-methylpiperidin-3-yl)pyrrolo[1,2-d][1,2,4]triazin-1-amine]: under setting [1], the IC50 was 5 to 20 nM. As for `CN1CCC[C@@H](Nc2nnc(-c3ccc(OC(F)(F)F)cc3)n3cccc23)C1` [Example 4, (R)-N-(1-methylpiperidin-3-yl)-4-(4-(trifluoromethoxy)phenyl)pyrrolo[1,2-d][1,2,4]triazin-1-amine], the 50% inhibitory concentration (IC50) under setting [1] is 20 to 100 nM and the IC50 under setting [2] was 20 to 100 nM. Consider `CN1CCC[C@@H](Nc2nnc(-c3ccc(Cl)cc3)n3ccnc23)C1` [Example 6, 5-(4-Chlorophenyl)-N-[(3R)-1-methyl-3-piperidyl]imidazo[1,2-d][1,2,4]triazin-8-amine], for which the IC50 under setting [1] lay in the range of 20 to 100 nM.

In the case of `CC1(O)CC(Oc2nnc(-c3ccc(C(F)(F)F)cc3O)n3cccc23)C1` (centres unmarked) [Example 8, 2-(1-((1s,3s)-3-hydroxy-3-methylcyclobutoxy)pyrrolo[1,2-d][1,2,4]triazin-4-yl)-5-(trifluoromethyl)phenol], the “inhibition of IL-1 beta release compared to the equivalent compounds in which Z1=C and Z2=N” value is recorded as “significantly increased inhibition”. Also, the IC50 under setting [1] was under 5 nM. Under setting [2], the IC50 lay within 5 to 20 nM.

With `CN1CC[C@@H](Nc2nnc(-c3ccc(Cl)cc3O)n3ccnc23)C1` [Example 9], the IC50 under setting [1] was in the range of 20 to 100 nM. Consider `C[C@]1(O)C[C@@H](Nc2nnc(-c3ccc(C(F)(F)F)cc3O)n3ccc(F)c23)C1` [Example 10, 2-(8-Fluoro-1-(((1s,3s)-3-hydroxy-3-methylcyclobutyl)amino)pyrrolo[1,2-d][1,2,4]triazin-4-yl)-5-(trifluoromethyl)phenol], for which the 50% inhibitory concentration (IC50) under setting [1] is under 5 nM. With `C[C@]1(O)C[C@@H](Nc2nnc(-c3ccc(C(F)(F)F)cc3O)c3cccn23)C1` [Example 11, 2-(4-(((1s,3s)-3-hydroxy-3-methylcyclobutyl)-amino)pyrrolo[1,2-d][1,2,4]triazin-1-yl)-5-(trifluoromethyl)phenol], the “inhibition of IL-1 beta release compared to the equivalent compounds in which Z1=C and Z2=N” value is “significantly increased inhibition”. The half-maximal inhibitory concentration (IC50) under setting [1] is under 5 nM. In addition, under setting [2], the half-inhibitory concentration (IC50) lay within 5 to 20 nM. As for `C[C@]1(O)C[C@@H](Nc2nnc(-c3ccc(C(F)(F)F)cc3O)n3cccc23)C1` [Example 12, 2-(1-(((1s,3s)-3-hydroxy-3-methylcyclobutyl)amino)pyrrolo[1,2-d][1,2,4]triazin-4-yl)-5-(trifluoromethyl)phenol], the IC50 was 5 to 20 nM under setting [3] and 20 to 100 nM under setting [4]. For the compound `C[C@]1(O)C[C@@H](Oc2nnc(-c3ccc(C(F)(F)F)cc3O)c3cccn23)C1` [Example 13, 2-(4-((1s,3s)-3-Hydroxy-3-methylcyclobutoxy)pyrrolo[1,2-d][1,2,4]triazin-1-yl)-5-(trifluoromethyl)phenol], the half-inhibitory concentration (IC50) is, setting by setting: under setting [3], 5 to 20 nM; under setting [4], 20 to 100 nM. `CCN1CCC[C@@H](Nc2nnc(-c3ccc(Cl)cc3O)n3ccnc23)C1` [Example 15]: the IC50 under setting [1] is under 5 nM.
